Values of other authors in PMC9901186 (bioRxiv, 2023).

System: NOD1

CCCCCCCCCCCC(=O)N[C@H](CCC(=O)NC(CCCC(N)C(=O)O)C(=O)O)C(=O)O (stereo partly shown) [C12-iE-DAP]
greater activation of NOD1-dependent NF-κB reporter relative to iE-DAP: ~ 100 fold
